Read-outs that look alike come from different tables or passages of the source.
Key:
Format in all cases: biochemical
[1] = target: MAP4K5 (Homo sapiens, UniProt Q9Y4K4); assay: Kinase profiling MAP4K5; conditions: for remaining activity at 100 µM: read-out: residual kinase activity, MAP4K5
Description: (§1) Any value less that 25 is considered to be highly significant inhibition.

[2] = target: T1, GCK (Homo sapiens, UniProt Q12851); assay: Kinase profiling GCK; conditions: for remaining activity at 100 µM: read-out: residual kinase activity, GCK
T1 sequence (Q12851 1-820): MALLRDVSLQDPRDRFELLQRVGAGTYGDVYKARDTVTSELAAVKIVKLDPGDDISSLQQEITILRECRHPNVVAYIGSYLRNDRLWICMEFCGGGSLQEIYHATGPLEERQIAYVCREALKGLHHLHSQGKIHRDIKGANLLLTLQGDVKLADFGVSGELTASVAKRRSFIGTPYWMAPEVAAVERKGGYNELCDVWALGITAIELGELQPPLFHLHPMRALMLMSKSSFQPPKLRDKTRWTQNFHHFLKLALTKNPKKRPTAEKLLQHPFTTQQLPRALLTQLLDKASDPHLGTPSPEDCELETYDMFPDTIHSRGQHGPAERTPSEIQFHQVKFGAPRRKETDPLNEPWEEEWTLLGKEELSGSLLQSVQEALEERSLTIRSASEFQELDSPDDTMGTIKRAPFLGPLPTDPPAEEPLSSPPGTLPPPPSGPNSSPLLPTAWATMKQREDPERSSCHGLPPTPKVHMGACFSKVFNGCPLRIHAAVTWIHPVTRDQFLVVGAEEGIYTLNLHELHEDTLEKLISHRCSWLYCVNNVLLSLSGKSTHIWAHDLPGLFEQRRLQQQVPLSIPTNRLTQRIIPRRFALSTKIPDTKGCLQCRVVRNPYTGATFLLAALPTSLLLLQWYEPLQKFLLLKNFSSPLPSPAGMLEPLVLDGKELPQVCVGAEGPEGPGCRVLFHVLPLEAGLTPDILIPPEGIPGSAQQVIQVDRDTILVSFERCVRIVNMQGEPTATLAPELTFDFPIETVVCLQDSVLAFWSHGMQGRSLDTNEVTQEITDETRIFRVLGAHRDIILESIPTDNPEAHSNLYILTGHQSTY
Description: as §1

[3] = target: T2, NEK2a (Homo sapiens, UniProt P51955); assay: Kinase profiling NEK2a; conditions: for remaining activity at 100 µM: read-out: residual kinase activity, NEK2a
T2 sequence (P51955 1-445): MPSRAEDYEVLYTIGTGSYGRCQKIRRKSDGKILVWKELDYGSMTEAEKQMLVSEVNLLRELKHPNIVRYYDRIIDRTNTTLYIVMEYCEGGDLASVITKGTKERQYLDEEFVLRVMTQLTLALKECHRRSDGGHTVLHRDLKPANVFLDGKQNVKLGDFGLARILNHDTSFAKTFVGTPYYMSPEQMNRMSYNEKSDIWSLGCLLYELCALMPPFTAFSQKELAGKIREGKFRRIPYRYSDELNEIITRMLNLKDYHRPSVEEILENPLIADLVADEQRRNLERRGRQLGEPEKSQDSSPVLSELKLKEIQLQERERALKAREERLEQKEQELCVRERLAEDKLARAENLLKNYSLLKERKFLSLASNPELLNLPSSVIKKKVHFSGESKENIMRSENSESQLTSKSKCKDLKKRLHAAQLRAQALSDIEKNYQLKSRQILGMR
Description: as §1

[4] = target: SIK3 (Homo sapiens, UniProt Q9Y2K2); assay: Kinase profiling SIK3; conditions: for remaining activity at 100 µM: read-out: residual kinase activity, SIK3
Chain of SIK3 (Q9Y2K2 whole entry, species assumed): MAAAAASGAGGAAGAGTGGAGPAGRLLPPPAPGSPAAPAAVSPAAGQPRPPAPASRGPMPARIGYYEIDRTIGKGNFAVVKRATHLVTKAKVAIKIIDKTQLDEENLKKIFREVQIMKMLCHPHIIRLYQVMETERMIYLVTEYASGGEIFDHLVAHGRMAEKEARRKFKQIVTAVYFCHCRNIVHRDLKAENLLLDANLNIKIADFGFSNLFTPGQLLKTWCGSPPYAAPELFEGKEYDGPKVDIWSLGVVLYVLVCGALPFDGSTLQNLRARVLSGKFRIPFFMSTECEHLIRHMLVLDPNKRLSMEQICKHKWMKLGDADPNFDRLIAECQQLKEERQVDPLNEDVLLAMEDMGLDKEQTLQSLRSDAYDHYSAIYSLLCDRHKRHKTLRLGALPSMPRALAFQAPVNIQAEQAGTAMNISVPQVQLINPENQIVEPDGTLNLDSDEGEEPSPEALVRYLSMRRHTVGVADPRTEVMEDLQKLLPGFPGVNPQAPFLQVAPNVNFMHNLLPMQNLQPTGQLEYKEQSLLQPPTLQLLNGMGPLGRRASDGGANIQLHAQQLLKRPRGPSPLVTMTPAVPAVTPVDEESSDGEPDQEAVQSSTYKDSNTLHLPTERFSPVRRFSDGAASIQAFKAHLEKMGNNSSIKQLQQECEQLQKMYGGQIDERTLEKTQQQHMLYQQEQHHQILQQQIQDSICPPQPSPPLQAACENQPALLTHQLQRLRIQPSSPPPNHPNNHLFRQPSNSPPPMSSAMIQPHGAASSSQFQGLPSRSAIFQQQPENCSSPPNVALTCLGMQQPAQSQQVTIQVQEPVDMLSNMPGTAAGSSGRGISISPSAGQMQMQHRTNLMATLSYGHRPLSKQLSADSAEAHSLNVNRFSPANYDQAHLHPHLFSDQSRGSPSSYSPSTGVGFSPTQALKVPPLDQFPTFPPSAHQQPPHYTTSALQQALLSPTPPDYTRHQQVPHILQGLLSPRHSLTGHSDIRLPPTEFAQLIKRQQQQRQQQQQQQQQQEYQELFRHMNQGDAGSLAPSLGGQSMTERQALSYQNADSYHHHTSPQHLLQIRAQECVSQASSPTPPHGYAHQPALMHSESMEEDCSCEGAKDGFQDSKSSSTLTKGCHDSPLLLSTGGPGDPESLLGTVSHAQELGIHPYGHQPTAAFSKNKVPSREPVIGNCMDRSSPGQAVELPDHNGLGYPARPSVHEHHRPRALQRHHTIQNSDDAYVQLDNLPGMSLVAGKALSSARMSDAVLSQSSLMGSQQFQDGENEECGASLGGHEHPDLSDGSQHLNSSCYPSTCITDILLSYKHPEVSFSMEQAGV
Description: as §1

[5] = target: CK1γ2 (Homo sapiens, UniProt P78368); assay: Kinase profiling CK1γ2; conditions: for remaining activity at 100 µM: read-out: residual kinase activity, CK1γ2
Chain of CK1γ2 (P78368 whole entry): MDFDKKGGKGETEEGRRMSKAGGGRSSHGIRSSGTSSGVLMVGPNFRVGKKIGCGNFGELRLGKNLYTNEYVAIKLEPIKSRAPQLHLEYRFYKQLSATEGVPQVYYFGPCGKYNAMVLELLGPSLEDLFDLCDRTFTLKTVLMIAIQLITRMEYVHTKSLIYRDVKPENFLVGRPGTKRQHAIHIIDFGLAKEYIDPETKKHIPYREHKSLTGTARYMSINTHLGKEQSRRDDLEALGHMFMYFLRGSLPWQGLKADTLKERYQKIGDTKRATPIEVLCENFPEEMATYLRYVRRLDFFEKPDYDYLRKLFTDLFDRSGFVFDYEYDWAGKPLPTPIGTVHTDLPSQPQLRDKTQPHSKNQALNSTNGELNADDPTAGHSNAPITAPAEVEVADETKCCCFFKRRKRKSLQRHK
Description: as §1

[6] = target: T3, ASK1 (Homo sapiens, UniProt Q99683); assay: Kinase profiling ASK1; conditions: for remaining activity at 100 µM: read-out: residual kinase activity, ASK1
T3 sequence (Q99683 1-1374): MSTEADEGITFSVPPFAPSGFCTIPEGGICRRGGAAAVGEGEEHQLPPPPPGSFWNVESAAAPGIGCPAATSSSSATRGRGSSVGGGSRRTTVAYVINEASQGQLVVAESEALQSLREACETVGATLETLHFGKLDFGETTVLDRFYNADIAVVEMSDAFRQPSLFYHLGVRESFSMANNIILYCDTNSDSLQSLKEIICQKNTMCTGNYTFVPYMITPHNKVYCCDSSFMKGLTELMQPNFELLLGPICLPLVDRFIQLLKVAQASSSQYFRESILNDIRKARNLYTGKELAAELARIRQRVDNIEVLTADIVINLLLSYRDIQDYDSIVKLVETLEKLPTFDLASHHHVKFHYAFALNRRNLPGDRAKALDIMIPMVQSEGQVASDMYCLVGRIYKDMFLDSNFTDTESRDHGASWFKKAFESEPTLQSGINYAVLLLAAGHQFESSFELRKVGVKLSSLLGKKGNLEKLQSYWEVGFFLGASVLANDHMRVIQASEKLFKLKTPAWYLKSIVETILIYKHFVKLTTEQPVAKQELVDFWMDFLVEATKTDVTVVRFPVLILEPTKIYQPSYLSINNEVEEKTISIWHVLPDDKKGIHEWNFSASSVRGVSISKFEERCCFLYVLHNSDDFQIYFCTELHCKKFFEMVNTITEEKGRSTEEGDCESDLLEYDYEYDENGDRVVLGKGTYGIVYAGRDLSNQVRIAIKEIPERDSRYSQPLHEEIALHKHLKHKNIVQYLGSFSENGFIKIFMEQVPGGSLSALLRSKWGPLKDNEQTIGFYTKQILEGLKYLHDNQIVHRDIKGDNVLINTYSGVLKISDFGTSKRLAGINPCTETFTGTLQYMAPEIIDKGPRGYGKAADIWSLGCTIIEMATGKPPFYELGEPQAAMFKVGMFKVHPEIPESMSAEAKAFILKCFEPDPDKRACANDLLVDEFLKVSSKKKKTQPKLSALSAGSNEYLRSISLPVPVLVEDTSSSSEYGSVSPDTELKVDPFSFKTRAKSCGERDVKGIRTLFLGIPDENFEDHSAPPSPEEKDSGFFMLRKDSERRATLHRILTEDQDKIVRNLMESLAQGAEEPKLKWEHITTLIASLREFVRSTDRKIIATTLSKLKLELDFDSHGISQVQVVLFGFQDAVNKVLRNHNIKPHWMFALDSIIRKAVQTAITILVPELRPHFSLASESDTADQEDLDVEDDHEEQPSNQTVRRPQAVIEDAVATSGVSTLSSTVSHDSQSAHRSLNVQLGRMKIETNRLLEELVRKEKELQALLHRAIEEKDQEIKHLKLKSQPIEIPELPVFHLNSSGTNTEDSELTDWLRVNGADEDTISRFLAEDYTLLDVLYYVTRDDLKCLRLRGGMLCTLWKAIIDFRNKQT
Description: as §1

[7] = 100 micromolar inhibitor concentration, 100 is no change
[8] = 100 micromolar inhibitor, 100 = no change

Chain of MAP4K5 (Q9Y4K4 whole entry, species assumed): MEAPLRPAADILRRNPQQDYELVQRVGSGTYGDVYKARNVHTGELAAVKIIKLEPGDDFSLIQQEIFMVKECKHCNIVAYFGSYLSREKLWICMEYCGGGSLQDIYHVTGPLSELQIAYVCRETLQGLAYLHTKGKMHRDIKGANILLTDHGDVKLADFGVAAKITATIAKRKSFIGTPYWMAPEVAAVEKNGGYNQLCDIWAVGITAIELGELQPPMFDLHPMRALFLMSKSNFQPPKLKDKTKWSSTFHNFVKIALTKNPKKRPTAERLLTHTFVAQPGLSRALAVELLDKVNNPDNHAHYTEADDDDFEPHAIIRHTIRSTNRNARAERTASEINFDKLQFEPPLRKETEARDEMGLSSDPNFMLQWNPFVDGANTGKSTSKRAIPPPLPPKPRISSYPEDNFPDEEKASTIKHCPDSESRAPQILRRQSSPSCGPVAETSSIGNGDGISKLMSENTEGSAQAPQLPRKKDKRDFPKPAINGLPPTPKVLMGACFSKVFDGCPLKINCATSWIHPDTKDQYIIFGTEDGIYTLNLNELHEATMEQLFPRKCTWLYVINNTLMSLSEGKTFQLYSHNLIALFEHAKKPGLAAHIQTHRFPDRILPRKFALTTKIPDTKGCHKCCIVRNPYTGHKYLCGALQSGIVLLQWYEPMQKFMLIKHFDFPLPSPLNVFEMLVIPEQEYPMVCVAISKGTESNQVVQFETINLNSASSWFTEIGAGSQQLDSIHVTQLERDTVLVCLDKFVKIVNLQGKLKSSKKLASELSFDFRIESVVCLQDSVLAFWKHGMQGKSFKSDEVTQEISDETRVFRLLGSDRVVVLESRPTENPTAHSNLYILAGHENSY

Structure (SMILES) | residual kinase activity, MAP4K5 [1, 7] | residual kinase activity, GCK [2, 7] | residual kinase activity, NEK2a [3, 7] | residual kinase activity, SIK3 [4, 7] | residual kinase activity, CK1γ2 [5, 7] | residual kinase activity, ASK1 [6, 7] | remaining activity at 100 µM [2, 7] [%] | remaining activity at 100 µM [3, 7] [%] | remaining activity at 100 µM [4, 7] [%] | remaining activity at 100 µM [5, 7] [%] | remaining activity at 100 µM [6, 7] [%] | further results
O=C(Nc1nc2cc(O)ccc2s1)c1ccncc1 [Compound 03-11] | 92 | 33 | 93 | 99 | 81 | 79 |  |  |  |  |  | 
CC(=O)Nc1nc2cc(C)ccc2s1 [Compound 03-76] | 83 | 35 | 95 | 103 | 54 | 23 |  |  |  |  |  | 
CC(=O)Nc1nc2cc(O)ccc2s1 [Compound 01-66, N-(5-hydroxybenzo[d]thiazol-2-yl)acetamide] |  |  |  |  |  |  |  |  |  |  |  | remaining activity at 100 µM [2]: 32%; remaining activity at 100 µM [3]: 85%; remaining activity at 100 µM [4]: 57%; remaining activity at 100 µM [5]: 6%; remaining activity at 100 µM [6]: 70%
CC(=O)Nc1nc2ccc(C(F)(F)F)cc2s1 [Compound 01-90] |  |  |  |  |  |  | 15 | 78 | 82 | 59 | 35 | remaining activity at 100 µM [1, 7]: 40%
CC(=O)Nc1nc2ccc(O)cc2s1 [Compound 01-71] |  |  |  |  |  |  | 19 | 75 | 46 | 10 | 53 | 
O=C(Nc1nc2ccc(O)cc2s1)c1ccccc1 [Compound 03-60] | 31 | 4 | 64 | 42 | 3 | 12 |  |  |  |  |  | 
CC(=O)Nc1nc2ccc(C#N)cc2s1 [Compound 01-94] |  |  |  |  |  |  | 11 | 60 | 73 | 18 | 18 | remaining activity at 100 µM [1, 7]: 38%
COc1ccc2sc(NC(C)=O)nc2c1 [Compound 03-21] |  |  |  |  |  |  | 3 | 93 | 121 | 6 | 97 | remaining activity at 100 µM [1, 7]: 96%
O=C(Nc1nc2ccc(O)cc2s1)c1ccncc1 [Compound 08-42] | 67 | 27 | 79 | 67 | 62 | 37 |  |  |  |  |  | 
CC(=O)Nc1cccc(NC(=O)c2nc3ccc(O)cc3s2)c1 [Compound 03-07, N-(3-acetamidophenyl)-6-hydroxybenzo[d]thiazole-2-carboxamide] |  |  |  |  |  |  |  |  |  |  |  | remaining activity at 100 µM [1, 8]: 56%; remaining activity at 100 µM [2, 8]: 35%; remaining activity at 100 µM [3, 8]: 38%; remaining activity at 100 µM [4, 8]: 56%; remaining activity at 100 µM [5, 8]: 77%; remaining activity at 100 µM [6, 8]: 86%
O=C(Nc1nc2cc(O)ccc2s1)c1ccccn1 [Compound 03-13] | 50 | 39 | 89 | 96 | 83 | 88 |  |  |  |  |  | 
O=C(Nc1nc2ccc(O)cc2s1)c1ccccn1 [Compound 03-12] | 74 | 29 | 92 | 82 | 57 | 70 |  |  |  |  |  | 
O=C(Nc1nc2ccc(O)cc2s1)c1cccnc1 [Compound 08-44] | 81 | 31 | 74 | 80 | 20 | 18 |  |  |  |  |  | 
CC(=O)Nc1nc2cc(C(F)(F)F)ccc2s1 [Compound 03-73] |  |  |  |  |  |  | 36 | 94 | 103 | 79 | 83 | remaining activity at 100 µM [1, 7]: 73%
CC(=O)Nc1nc2ccccc2s1 [Compound 03-32] | 95 | 39 | 90 | 89 | 41 | 66 |  |  |  |  |  | 
CC(=O)Nc1nc2cc(F)ccc2s1 [Compound 03-77] |  |  |  |  |  |  | 8 | 90 | 89 | 22 | 54 | remaining activity at 100 µM [1, 7]: 65%
O=C(Nc1nc2cc(O)ccc2s1)c1cccnc1 [Compound 03-33] | 58 | 25 | 99 | 92 | 25 | 51 |  |  |  |  |  | 

— patent publication US10231954B2, “Neurodegenerative therapies” (LYTIX BIOPHARMA AS, priority 2014, dated 2019)
